Each block holds one molecule with its values, some of them ahead of it.
How the values were obtained:
T. brucei TryR [1] = molecular target: T1, T. brucei TryR (Trypanosoma brucei brucei, UniProt P39051); test: TryR enzyme assay; format: biochemical, Trypanosoma brucei brucei strain S427; settings: for fold less active than 9a against TryR: vs 9a; for improvement in TryR potency with respect to ester 1c: vs 1c IC50 9.4 μM; for ligand efficiency: from T. brucei TryR IC50
[2] = test system: bloodstream form T. brucei brucei; test: Resazurin fluorescence-based cell viability assay, T. brucei; set-up: species or system Trypanosoma brucei brucei
T. brucei TryR [3] = molecular target: T1, T. brucei TryR; test: Mode of inhibition studies; format: biochemical; settings: for mode of inhibition: with respect to trypanothione disulfide
[4] = Resazurin viability counter-screen, MRC5 cells; format: cell-based; settings: human, MRC-5 cells

T1 sequence (P39051 whole entry): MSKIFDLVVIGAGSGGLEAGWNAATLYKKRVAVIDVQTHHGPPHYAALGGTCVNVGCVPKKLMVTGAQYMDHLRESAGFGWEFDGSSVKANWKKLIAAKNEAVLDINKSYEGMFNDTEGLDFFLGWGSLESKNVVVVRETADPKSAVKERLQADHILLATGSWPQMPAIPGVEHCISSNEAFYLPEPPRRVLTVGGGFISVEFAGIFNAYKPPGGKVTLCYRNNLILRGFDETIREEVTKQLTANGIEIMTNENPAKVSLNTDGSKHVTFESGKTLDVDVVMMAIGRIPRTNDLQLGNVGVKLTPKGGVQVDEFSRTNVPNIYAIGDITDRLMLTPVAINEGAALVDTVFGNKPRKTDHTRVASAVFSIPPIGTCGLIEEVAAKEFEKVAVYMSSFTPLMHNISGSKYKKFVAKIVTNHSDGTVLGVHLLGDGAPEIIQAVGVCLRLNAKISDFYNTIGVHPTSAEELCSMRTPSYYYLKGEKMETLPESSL

difference in activity between T. cruzi and T. brucei TryR (T. brucei TryR [1]): < 3 fold
Compound: COC(=O)CN1C(C)=Nc2ccc(C)cc2C1c1ccccc1 (stereo not shown) [1b]

Compound: N=C(N)c1ccc(OCCCCCOc2ccc(C(=N)N)cc2)cc1 [Pentamidine, pentamidine, reference compound]
EC50 ([2]; Trypanosoma brucei, read-out: T. brucei EC50 (positive control)): 5 nM

fold less active than 9a against TryR (T. brucei TryR [1]): 15 fold
Compound: COc1cccc(C2c3cc(Cl)ccc3N=C(C)N2CCN2CCCCC2)c1 (stereo not shown) [29d]

Compound: CC1=Nc2ccc(Cl)cc2C(c2ccccc2)N1CCN1CCCCC1 (racemic) [9a, (R/S)-6-Chloro-2-methyl-4-phenyl-3-(2-(piperidin-1-yl)ethyl)-3,4-dihydroquinazoline]
selectivity (MRC5 EC50/T. brucei EC50) ([2]; ratio, fold): 11

TryR IC50 (T. brucei TryR [1]; recombinant T. brucei TryR, mean of at least two replicates): inactive
Compound: COC(=O)CN1C(C)=Nc2ccc(Br)cc2C1c1ccccc1Cl (stereo not shown) [1d]

improvement in TryR potency with respect to ester 1c (T. brucei TryR [1]): 10 fold
Compound: CC1=Nc2ccc(Cl)cc2C(c2ccccc2)N1Cc1ccccc1F (stereo not shown) [6d]

improvement in TryR potency with respect to ester 1c (T. brucei TryR [1]): 10 fold
Compound: CC1=Nc2ccc(Cl)cc2C(c2ccccc2)N1Cc1ccccc1 (racemic) [6a, (R/S)-3-Benzyl-6-chloro-2-methyl-4-phenyl-3,4-dihydroquinazoline]

ligand efficiency (T. brucei TryR [1]): 0.31 kcal mol^–1 per non-H atom
improvement in TryR potency with respect to ester 1c (T. brucei TryR [1]): 10 fold
Compound: CC1=Nc2ccc(Cl)cc2C(c2ccccc2)N1CCN1CCN(C)CC1 (stereo not shown) [9c]

ligand efficiency (T. brucei TryR [1]): > 0.3 kcal mol^–1 per non-H atom
improvement in TryR potency cf. 9e (T. brucei TryR [1]; vs 9e IC50 1.0 μM): 4 fold
TryR Ki′ (T. brucei TryR [3]; mixed inhibition, enzyme–T[S]2 complex): 1460 nM
mode of inhibition (T. brucei TryR [3]): linear mixed
Compound: CC1=Nc2ccc(Cl)cc2C(c2ccc(C)cc2)N1CCCN(C)C (stereo not shown) [29a, 3-(6-Chloro-2-methyl-4-p-tolylquinazolin-3(4H)-yl)-N,N-dimethylpropan-1-amine]

fold more potent against TryR than other C6-aryls (16a,b,e,f) (T. brucei TryR [1]): 5- to 10 fold
Compound: CC1=Nc2ccc(-c3ccco3)cc2C(c2ccccc2)N1CCN1CCCCC1 (stereo not shown) [16c]

Compound: CC1=Nc2ccc(-c3ccccc3)cc2C(c2ccccc2)N1CCN1CCCCC1 (racemic) [16a, (R/S)-2-Methyl-4,6-diphenyl-3-(2-(piperidin-1-yl)ethyl)-3,4-dihydroquinazoline]
fold more potent against T. brucei cells than against TryR [2]: 10 fold

fold more potent against TryR than C6-phenyl analogue 16a (T. brucei TryR [1]): 10 fold
Compound: CC1=Nc2ccc(Br)cc2C(c2ccccc2)N1CCN1CCCCC1 (stereo not shown) [15c, 6-bromo-2-methyl-4-phenyl-3-(2-(piperidin-1-yl)ethyl)-3,4-dihydroquinazoline]

improvement in TryR potency with respect to ester 1c (T. brucei TryR [1]): 10 fold
Compound: CC1=Nc2ccc(Cl)cc2C(c2ccccc2)N1Cc1cccc(N(C)C)c1 (stereo not shown) [6g]

fold less active than 9a against TryR (T. brucei TryR [1]): 15 fold
Compound: CC1=Nc2ccc(Cl)cc2C(C2CCCCC2)N1CCN1CCCCC1 (stereo not shown) [29f]

mode of inhibition (T. brucei TryR [3]): mixed mode of inhibition
Compound: CC1=Nc2ccc(Cl)cc2C(c2ccccc2)N1CCN1CCN(C(=O)CN(C)C)CC1 (stereo not shown) [13h]

fold more potent against TryR than other C6-aryls (16a,b,e,f) (T. brucei TryR [1]): 5- to 10 fold
Compound: CC1=Nc2ccc(-c3ccsc3)cc2C(c2ccccc2)N1CCN1CCCCC1 (stereo not shown) [16d]

difference in activity between T. cruzi and T. brucei TryR (T. brucei TryR [1]): < 3 fold
Ki (T. brucei TryR [3]): 920 ± 60 nM
mode of inhibition (T. brucei TryR [3]): linear competitive inhibitor
Compound: COC(=O)CN1C(C)=Nc2ccc(Br)cc2C1c1ccccc1 (stereo not shown) [1a]
EC50 [4]: > 50000 nM
reduction in potency between biochemical (TryR IC50) and cell assay (T. brucei EC50) [2]: > 5 fold

ligand efficiency (T. brucei TryR [1]): > 0.3 kcal mol^–1 per non-H atom
Compound: CCN1C(C)=Nc2ccc(Cl)cc2C1c1ccccc1 (stereo not shown) [6k]

ligand efficiency (T. brucei TryR [1]): 0.27 kcal mol^–1 per non-H atom
improvement in TryR potency with respect to ester 1c (T. brucei TryR [1]): 22 fold
Compound: CC1=Nc2ccc(Cl)cc2C(c2ccccc2)N1CCN1CCN(C(=O)c2ccco2)CC1 (stereo not shown) [13e]

improvement in TryR potency with respect to ester 1c (T. brucei TryR [1]): 11 fold
mode of inhibition (T. brucei TryR [3]): mixed mode of inhibition
Compound: CC1=Nc2ccc(Cl)cc2C(c2ccccc2)N1CCNC(=O)c1ccco1 (stereo not shown) [11e]

Compound: CC1=Nc2ccccc2C(c2ccccc2)N1CCN1CCCCC1 (stereo not shown) [15b]
fold less potent against T. brucei than C6-halogen analogues 9a, 15c, 15d [2]: ~10 fold

Source: paper PMC3188286 (Journal of Medicinal Chemistry, 2011)
